Results from US9247744B2, “Ternary pesticidal mixtures” (BASF SE, priority 2006, dated 2016).

Columns and labels:
Assay type in all cases: in vivo
[1] = test system: green peach aphid (Myzus persicae); experiment: control of green peach aphid through systemic means, artificial diet under membrane; details: pipetted into aphid diet, mortality and fecundity after 3 days
Procedure: (§1) The analysis of synergism or antagonism between the mixtures or compositions was determined using Colby's equation.
For evaluating control of green peach aphid (Myzus persicae) through systemic means the test unit consisted of 96-well-microtiter plates containing liquid artificial diet under an artificial membrane.
The compounds or mixtures were formulated using a solution containing 75% water and 25% DMSO. Different concentrations of formulated compounds or mixtures were pipetted into the aphid diet, using a custom built pipetter, at two replications.
(§2) For experimental mixtures in these tests identical volumes of both mixing partners at the desired concentrations respectively, were mixed together.
After application, 5-8 adult aphids were placed on the artificial membrane inside the microtiter plate wells. The aphids were then allowed to suck on the treated aphid diet and incubated at 23±1° C., 50±5% RH for 3 days. Aphid mortality and fecundity was then visually assessed.
In this test the compound 1-2, and orysastrobin, and 5-chloro-7-(4-methylpiperidin-1-yl)-6-(2,4,6-trifluorophenyl)-[1,2,4]triazolo[1,5-a]pyrimidine (compound 2.2), and N-[2-(1,1,2,3,3,3-hexafluoropropoxy)-phenyl]-3-difluoromethyl-1-methyl-1H-pyrazole-4-carboxamide (compound 3.1), were used.

[2] = test system: vetch aphid (Megoura viciae); experiment: control of vetch aphid on broad bean leaf disks, 24-well microtiter plates; details: sprayed on leaf disks, mortality and fecundity after 5 days
Procedure: as §1
For evaluating control of vetch aphid (Megoura viciae) through contact or systemic means the test unit consisted of 24-well-microtiter plates containing broad bean leaf disks.
The compounds or mixtures were formulated using a solution containing 75% water and 25% DMSO. Different concentrations of formulated compounds or mixtures were sprayed onto the leaf disks at 2.5 μl, using a custom built micro atomizer, at two replications.
as §2
After application, the leaf disks were air-dried and 5-8 adult aphids placed on the leaf disks inside the microtiter plate wells. The aphids were then allowed to suck on the treated leaf disks and incubated at 23±1° C., 50±5% RH for 5 days. Aphid mortality and fecundity was then visually assessed.
In this test the compound 1-2, and N-(3′,4′-dichloro-5-fluorobiphenyl-2-yl)-3-difluoromethyl-1-methylpyrazole-4-carboxamide (compound 2.1) and 5-chloro-7-(4-methyl-piperidin-1-yl)-6-(2,4,6-trifluorophenyl)-[1,2,4]triazolo[1,5-a]pyrimidine (compound 2.2) were used.

[3] = test system: tobacco budworm (Heliothis virescens); experiment: control of tobacco budworm, insect diet with eggs, 96-well microtiter plates; details: sprayed on insect diet, egg and larval mortality after 5 days
Procedure: as §1
For evaluating control of tobacco budworm (Heliothis virescens) the test unit consisted of 96-well-microtiter plates containing an insect diet and 15-25 H. virescens eggs. The compounds or mixtures were formulated using a solution containing 75% water and 25% DMSO. Different concentrations of formulated compounds or mixtures were sprayed onto the insect diet at 10 μl, using a custom built micro atomizer, at two replications.
as §2
After application, microtiter plates were incubated at 28±1° C., 80±5% RH for 5 days. Egg and larval mortality was then visually assessed.
In this test the compound I-2, and prochloraz, and pyraclostrobin, resp., were used.

[4] = test system: boll weevil (Anthonomus grandis); experiment: control of boll weevil, insect diet with eggs, 24-well microtiter plates; details: sprayed on insect diet, egg and larval mortality after 5 days
Procedure: as §1
For evaluating control of boll weevil (Anthonomus grandis) the test unit consisted of 24-well-microtiter plates containing an insect diet and 20-30 A. grandis eggs.
The compounds or mixtures were formulated using a solution containing 75% water and 25% DMSO. Different concentrations of formulated compounds or mixtures were sprayed onto the insect diet at 20 μl, using a custom built micro atomizer, at two replications.
as §2
After application, microtiter plates were incubated at 23±1° C., 50±5% RH for 5 days. Egg and larval mortality was then visually assessed.
In this test the compound 1-2, and prochloraz, pyraclostrobin, N-[2-(1,1,2,3,3,3-hexafluoropropoxy)-phenyl]-3-difluoromethyl-1-methyl-1H-pyrazole-4-carboxamide (compound 3.1), and N-(3′,4′,5′-trifluorobiphenyl-2-yl)-1-methyl-3-difluoromethyl-1H-pyrazole-4-carboxamide (compound 3.2), resp., were used.

With CNC(=O)/C(=N/OC)c1ccccc1CO/N=C(C)/C(=N/OC)C(/C)=N/OC [orysastrobin, (2E)-2-(methoxyimino)-2-{2-[(3E,5E,6E)-5-(methoxyimino)-4,6-dimethyl-2,8-dioxa-3,7-diazanona-3,6-dien-1-yl]phenyl}-N-methylacetamide] the “Average Control %” value ([1]; 40 ppm) was 0%.

CNC(=O)c1cc(C#N)cc(C)c1NC(=O)c1cc(Br)nn1-c1ncccc1Cl [I-2] was tested, and the “Average Control %” value ([1]; 0.5 ppm) was 0%, the “Average Control %” value ([2]; 0.5 ppm) was 0% and the “Average Control %” value ([2]; 2.5 ppm) was 0%. For the same compound, the “Average Control %” value ([3]; 0.5 ppm) was 0%, the “Average Control %” value ([3]; 2.5 ppm) was 37.5% and the “Average Control %” value ([4]; 0.5 ppm) was 0%.

With COC(=O)N(OC)c1ccccc1COc1ccn(-c2ccc(Cl)cc2)n1 [pyraclostrobin, methyl N-{2-[1-(4-chlorophenyl)-1/pyrazol-3-yloxymethyl]phenyl}(N-methoxy)carbamate] the “Average Control %” value ([1]; 8 ppm) was 0%, the “Average Control %” value ([3]; 200 ppm) was 0% and the “Average Control %” value ([4]; 40 ppm) was 0%.

In the case of Cn1cc(C(=O)Nc2ccccc2-c2cc(F)c(F)c(F)c2)c(C(F)F)n1 [compound 3.2, N-(3′,4′,5′-trifluorobiphenyl-2-yl)-1-methyl-3-difluoromethyl-1H-pyrazole-4-carboxamide], the “Average Control %” value ([4]; 200 ppm) is reported as 0%.

In the case of Cn1cc(C(=O)Nc2ccc(F)cc2-c2ccc(Cl)c(Cl)c2)c(C(F)F)n1 [compound 2.1, N-(3′,4′-dichloro-5-fluorobiphenyl-2-yl)-3-difluoromethyl-1-methylpyrazole-4-carboxamide], the “Average Control %” value ([2]; 1000 ppm) is reported as 0%.
